In patent US20160287672A1, “METHOD OF TREATING CHRONIC HEART FAILURE BY ADMINISTERING RELAXIN” (priority 2008, published 2016):
Where two headings read alike, the source gives them in different places.

What was measured:
[1] = test system: systemic sclerosis patients; conditions: scleroderma patients (Seibold et al. 2000); cited from earlier work
healthy volunteers = conditions: cited from earlier work
[2] = test system: hypertensive and normotensive rats; conditions: cited from earlier work
[3] = test system: patients with chronic and stable compensated congestive HF; assay: Open-label pilot study of IV recombinant relaxin over 24 hours in chronic heart failure patients; type: in vivo, human; conditions: for CI Change from baseline / CO Change from baseline / DBP Change from baseline / HR Change from baseline / PAP Change from baseline / PCWP Change from baseline / PVR Change from baseline / RAP Change from baseline / SBP Change from baseline / SVR Change from baseline: mean ± SD
Method: Overview. In this open-label study 16 patients with chronic and stable compensated congestive HF were enrolled in three dose-ascending cohorts of recombinant intravenous relaxin (10 to 960 mcg/kg/day) over 24 hours. Relaxin produced increases in cardiac index and stroke volume, and a decrease in pulmonary wedge pressure and NT-pro BNP. It improved markers of renal function, with a small rebound at the highest dose during post-infusion. […] A maximally tolerated dose was determined.
Design of Study. In this single-center, open-label study, 16 patients who fulfilled inclusion and but not exclusion criteria for chronic and stable compensated congestive HF were sequentially allocated to three ascending cohorts of intravenous (IV) relaxin. Main inclusion criteria included: Age >18 years; NYHA CHF Class II-III without restriction on etiology; left ventricular ejection fraction <35% within 6 months of enrollment; receiving established oral HF therapy expected to remain unchanged during the study period. Main exclusion criteria included: Wedge pressure <16 mmH or CI >2.5 L/min/m2; acute coronary syndrome (within 4 weeks) or recent myocardial infarction or cardiac surgery (within 6 months); AHF requiring intravenous therapy at baseline; systolic blood pressure <85 mmHg; uncorrected valvular heart disease, except for relative mitral and/or tricuspid valve insufficiency; obstructive or restrictive cardiomyopathy; recent episode of ventricular tachycardia or fibrillation (within 4 weeks); recent stroke (within 3 months); creatinine >2.0 mg/dl or serum transaminases and/or total bilirubin >2.5 times the upper limit of normal at screening visit; history of endometriosis.
The study drug was relaxin (produced by recombinant technology). Recombinant relaxin is identical to the native human hormone H2 relaxin. The dose escalation was as follows: Group A included sequential treatment for 8 hours each with dosages equivalent to 10, 30, and 100 mcg/kg/day. Group B included sequential treatment for 8 hours each with dosages equivalent to 240, 480, and 960 mcg/kg/day. Group C received 24 hours of treatment with 960 mcg/kg/day. Escalation from Group A to Group B was done after examining safety and tolerability of the doses used in Group A. Escalation from Group B to C occurred after the safety and tolerability of the highest dose in Group B (960 mcg/kg/day) was determined.
Patients were monitored in the intensive care unit for the infusion and post-infusion periods (24 hours either). Hemodynamic measurements, including CI, SVR, PCWP, SBP, RAP, and PVR, were serially performed using Swan-Ganz and arterial catheters. Likewise, clinical and laboratory monitoring was carried out serially throughout infusion and post-infusion and on Day 9 after beginning of infusion. An additional 30-day evaluation for serious adverse events was performed by phone. Endpoints included hemodynamic and neurohumoral (NT-pro BNP levels) changes from baseline, as well as monitoring of vital signs, electrocardiogram, serum chemistry, and hematology parameters throughout the study. For statistical analysis, an error probability of P<0.05 was regarded as significant. Baseline values were compared using the Kruskal-Wallis ANOVA on ranks followed by Dunn's test. Differences over time within the single groups (hemodynamics, renal parameter, and peptide levels) were analyzed with a Friedman Repeated Measures Analysis of Variance on Ranks followed by Dunn's test for comparison against the baseline.

[4] = test system: systemic sclerosis patients; assay: Clinical trials of relaxin by continuous subcutaneous infusion for six months in systemic sclerosis patients; type: in vivo, human; conditions: continuous SQ infusion for six months
Source text: Clinical trials with relaxin have also been conducted on systemic sclerosis patients. 257 human subjects who suffer from systemic sclerosis, a serious fibrotic disease, have been treated with relaxin by continuous and subcutaneous (SQ) infusion for six months. […] These findings support the hypothesis that relaxin administration was associated with balanced systemic and renal vasodilation.

[5] = Group C, 960 mcg/kg/d IV over 24 hours
[6] = Group C, 960 mcg/kg/d IV, 24 hr

## relaxin: Study drug produced by recombinant technology, identical to the native human hormone H2 relaxin; peptide hormone of A and B chains
[1]
  predicted creatinine clearance: sustained amelioration
Healthy volunteers
  renal blood flow: increases renal blood flow
[2]
  CI: increase in CI
  SVR: decrease in SVR
  mean arterial pressure: without affecting mean arterial pressure
[3]; Day 9, after doses equivalent to 960 mcg/kg/day IV
  creatinine increases post-infusion: ≤ 0.5 mg/dL
[3]; Group A, 10 mcg/kg/d IV, 8 hr
  CI Change from baseline: 0.08 ± 0.3 L/min/m2
  CO Change from baseline: 0.13 ± 0.5 L/min
  DBP Change from baseline: −3.0 ± 4.2 mmHg
  HR Change from baseline: 3.3 ± 7.6 beats/min
  PAP Change from baseline: −3.75 ± 4.1 mmHg
  PCWP Change from baseline: −1.8 ± 1.9 mmHg
  PVR Change from baseline: −17.3 ± 60.5 dynes * sec/cm5
  RAP Change from baseline: 0.8 ± 0.9 mmHg
  SBP Change from baseline: −12.5 ± 9.3 mmHg
  SVR Change from baseline: −143 ± 140 dynes * sec/cm5
[3]; Group A, 30 mcg/kg/d IV, 8 hr
  CI Change from baseline: 0.25 ± 0.4 L/min/m2
  CO Change from baseline: 0.45 ± 0.6 L/min
  DBP Change from baseline: 2.5 ± 10.9 mmHg
  HR Change from baseline: 2.3 ± 16.2 beats/min
  PAP Change from baseline: −4.0 ± 5.5 mmHg
  PCWP Change from baseline: −5.0 ± 2.6 mmHg
  PVR Change from baseline: −0.5 ± 56.7 dynes * sec/cm5
  RAP Change from baseline: −1.0 ± 1.8 mmHg
  SBP Change from baseline: −5.3 ± 16.8 mmHg
  SVR Change from baseline: −171 ± 159 dynes * sec/cm5
[3]; Group A, 100 mcg/kg/d IV, 8 hr
  CI Change from baseline: 0.25 ± 0.2 L/min/m2
  CO Change from baseline: 0.45 ± 0.2 L/min
  DBP Change from baseline: −5.0 ± 3.7 mmHg
  HR Change from baseline: 0.5 ± 1.3 beats/min
  PAP Change from baseline: −4.5 ± 4.2 mmHg
  PCWP Change from baseline: −3.5 ± 3.7 mmHg
  PVR Change from baseline: −25.3 ± 28.9 dynes * sec/cm5
  RAP Change from baseline: −0.8 ± 1.2 mmHg
  SBP Change from baseline: −13.0 ± 8.3 mmHg
  SVR Change from baseline: −288 ± 92 dynes * sec/cm5
[3]; Group B
  time course of NT-pro BNP: no change
[3]; Group B, 240 mcg/kg/d IV, 8 hr
  CI Change from baseline: 0.28 ± 0.2 L/min/m2
  CO Change from baseline: 0.62 ± 0.4 L/min
  DBP Change from baseline: 3.0 ± 6.0 mmHg
  HR Change from baseline: 1.7 ± 6.7 beats/min
  PAP Change from baseline: −1.7 ± 1.6 mmHg
  PCWP Change from baseline: −1.5 ± 1.9 mmHg
  PVR Change from baseline: −14.8 ± 16.9 dynes * sec/cm5
  RAP Change from baseline: 0.3 ± 1.4 mmHg
  SBP Change from baseline: −2.5 ± 7.4 mmHg
  SVR Change from baseline: −150 ± 138 dynes * sec/cm5
[3]; Group B, 480 mcg/kg/d IV, 8 hr
  CI Change from baseline: 0.17 ± 0.3 L/min/m2
  CO Change from baseline: 0.33 ± 0.7 L/min
  DBP Change from baseline: 0.0 ± 7.2 mmHg
  HR Change from baseline: −1.8 ± 4.5 beats/min
  PAP Change from baseline: 1.7 ± 2.7 mmHg
  PCWP Change from baseline: 0.33 ± 2.6 mmHg
  PVR Change from baseline: 5.5 ± 35.2 dynes * sec/cm5
  RAP Change from baseline: 0.5 ± 1.1 mmHg
  SBP Change from baseline: 2.2 ± 5.6 mmHg
  SVR Change from baseline: −12 ± 219 dynes * sec/cm5
[3]; Group B, 960 mcg/kg/d IV, 8 hr
  CI Change from baseline: 0.25 ± 0.3 L/min/m2
  CO Change from baseline: 0.48 ± 0.7 L/min
  DBP Change from baseline: −0.3 ± 6.8 mmHg
  HR Change from baseline: 1.8 ± 3.4 beats/min
  PAP Change from baseline: 0.3 ± 3.7 mmHg
  PCWP Change from baseline: −0.17 ± 2.7 mmHg
  PVR Change from baseline: 3.3 ± 27.5 dynes * sec/cm5
  RAP Change from baseline: 0.8 ± 1.2 mmHg
  SBP Change from baseline: −3.0 ± 5.1 mmHg
  SVR Change from baseline: −102 ± 248 dynes * sec/cm5
[3]; [5]
  absolute decreases in PCWP: approximately 4 mm Hg
  absolute increases of CI: up to 0.81 /min/m2
[3]; Group C, 960 mcg/kg/d IV, 8 hr
  CI Change from baseline: 0.43 ± 0.3 L/min/m2
  CO Change from baseline: 0.85 ± 0.5 L/min
  DBP Change from baseline: −4.8 ± 5.4 mmHg
  HR Change from baseline: 2.5 ± 4.3 beats/min
  PAP Change from baseline: −3.2 ± 3.1 mmHg
  PCWP Change from baseline: −2.5 ± 3.5 mmHg
  PVR Change from baseline: −58.5 ± 69.4 dynes * sec/cm5
  RAP Change from baseline: −1.2 ± 2.9 mmHg
  SBP Change from baseline: −1.3 ± 4.7 mmHg
  SVR Change from baseline: −255 ± 188 dynes * sec/cm5
[3]; [6]
  CI Change from baseline: 0.67 ± 0.15 L/min/m2
  CO Change from baseline: 1.25 ± 0.03 L/min
  DBP Change from baseline: −6.5 ± 7.5 mmHg
  HR Change from baseline: 0.67 ± 3.6 beats/min
  PAP Change from baseline: −5.0 ± 3.4 mmHg
  PCWP Change from baseline: −3.5 ± 3.0 mmHg
  PVR Change from baseline: −82.5 ± 55.5 dynes * sec/cm5
  RAP Change from baseline: −1.5 ± 2.7 mmHg
  SBP Change from baseline: −7.3 ± 9.5 mmHg
  SVR Change from baseline: −395 ± 217 dynes * sec/cm5
[3]; Group C, 960 mcg/kg/day IV
  drop of PVR: ~30%
[3]; Groups A and C
  time course of NT-pro BNP: significant declines
[3]; after doses equivalent to 960 mcg/kg/day IV, spontaneously resolved by Day 30
  creatinine and BUN post-infusion: increase on Day 9
[3]; all doses, 10-960 mcg/kg/day IV
  tolerability: well tolerated
[3]; all groups
  infusion-related adverse events: no infusion-related clinically significant adverse events
  symptomatic hypotension: no symptomatic hypotension was observed
[3]; all groups, 10-960 mcg/kg/d IV
  heart rate: did not change in any group
[3]; all groups, significant in groups A and C
  creatinine values during infusion: decreased
[3]; all treatment groups
  right atrial pressure: None of the treatment groups showed a significant decrease
[3]; in general, all groups
  alterations of SBP: significant alterations of SBP (FIG. 8) were not observed
[3]; throughout the study
  vital signs, ECG, serum chemistry, and hematology parameters: did not evoke any abnormalities
[3]; without physician supervision, chronic HF patients
  maximally tolerated dose (MTD) of IV relaxin: 240 to 480 µg/kg/day
[4]
  blood pressure: stable decreases in blood pressure
  predicted creatinine clearance: statistically significant increase
  serious hypotensive events: did not experience any serious hypotensive events
